pIC50, pKi: −log10 of the molar value.
Experiments:
Endothelin-1 receptor = target: T1, Endothelin-1 receptor (Homo sapiens, UniProt P25101); assay: Displacement of [I125]ET1 from Homo sapiens (human) ETA receptor expressed in CHO cells; format: cell-based
T1 sequence (P25101 whole entry): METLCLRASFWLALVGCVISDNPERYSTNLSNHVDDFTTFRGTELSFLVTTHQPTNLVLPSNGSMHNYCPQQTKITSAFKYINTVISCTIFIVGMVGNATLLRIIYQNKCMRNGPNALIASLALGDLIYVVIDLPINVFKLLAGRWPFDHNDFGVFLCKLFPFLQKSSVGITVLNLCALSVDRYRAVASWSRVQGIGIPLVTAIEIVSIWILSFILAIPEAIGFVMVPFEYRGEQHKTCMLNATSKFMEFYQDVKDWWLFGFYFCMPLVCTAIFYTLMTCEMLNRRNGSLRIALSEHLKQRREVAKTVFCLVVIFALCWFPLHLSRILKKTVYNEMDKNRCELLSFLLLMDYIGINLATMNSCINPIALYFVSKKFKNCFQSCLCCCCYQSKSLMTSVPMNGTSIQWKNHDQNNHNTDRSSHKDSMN

[1] = Inhibition of endothelin converting enzyme (unknown origin); parameters: species or system Homo sapiens
[2] = target: T2, Endothelin receptor type B (Homo sapiens, UniProt P24530); assay: Displacement of [I125]ET1 from Homo sapiens (human) ETB receptor expressed in CHO cells; format: cell-based
T2 sequence (P24530 whole entry): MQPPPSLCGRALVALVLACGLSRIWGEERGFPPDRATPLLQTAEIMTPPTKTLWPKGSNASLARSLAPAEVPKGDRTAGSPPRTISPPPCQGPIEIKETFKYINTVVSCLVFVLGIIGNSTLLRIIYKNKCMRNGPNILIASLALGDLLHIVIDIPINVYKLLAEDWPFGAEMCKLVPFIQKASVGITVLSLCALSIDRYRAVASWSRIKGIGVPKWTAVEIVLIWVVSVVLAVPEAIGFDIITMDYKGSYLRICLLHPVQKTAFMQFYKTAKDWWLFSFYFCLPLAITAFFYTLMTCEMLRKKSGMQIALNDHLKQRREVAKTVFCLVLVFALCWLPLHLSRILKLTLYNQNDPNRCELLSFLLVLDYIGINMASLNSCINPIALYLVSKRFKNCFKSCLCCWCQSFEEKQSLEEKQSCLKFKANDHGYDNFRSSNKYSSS

[3] = Volume of distribution in Rattus norvegicus Sprague-Dawley (rat) at 2 mg/kg, iv; format: ADME, organism-based; parameters: dose 2 mg/kg, route intravenous; conditions: in vivo
Rattus norvegicus [4] = assay: Unbound clearance in Rattus norvegicus Sprague-Dawley (rat) at 2 mg/kg, iv; format: ADME, organism-based; parameters: dose 2 mg/kg, route intravenous; conditions: in vivo
[5] = Fraction unbound in Rattus norvegicus Sprague-Dawley (rat) at 2 mg/kg, iv; format: ADME, organism-based; parameters: dose 2 mg/kg, route intravenous; conditions: in vivo
[6] = Permeability of the compound across Homo sapiens (human) Caco2 cells; format: ADME, cell-based; conditions: Caco-2, read-out: permeability
[7] = Drug absorption in Rattus norvegicus Sprague-Dawley (rat) at 2 mg/kg, iv; format: ADME, organism-based; parameters: dose 2 mg/kg, route intravenous; conditions: in vivo, read-out: Drug absorption
Rattus norvegicus [8] = assay: Apparent elimination half life in Rattus norvegicus (rat) assessed as (S)-3-(1-(benzo[d][1,3]dioxol-5-yl)-2-(2-methoxy-4-methylphenylsulfonamido)-2-oxoethyl)-1-methyl-1H-indole-6-carboxylic acid level at 2 mg/kg, po; format: ADME, organism-based; parameters: dose 2 mg/kg, route oral; conditions: in vivo
[9] = Cmax in Rattus norvegicus (rat) at 2 mg/kg, po; format: ADME, organism-based; parameters: dose 2 mg/kg, route oral; conditions: in vivo
[10] = Half life in Rattus norvegicus (rat) liver microsome at 1 uM; format: ADME; conditions: liver microsomes
Rattus norvegicus [11] = assay: Toxicity in Rattus norvegicus (rat) at 30 mg/kg, po QD for 5 days; format: organism-based; parameters: dose 30 mg/kg, route oral; conditions: in vivo, 120 h
[12] = Half life in Homo sapiens (human) liver microsome at 1 uM; format: ADME; conditions: liver microsomes
[13] = Plasma clearance in Rattus norvegicus (rat) at 2 mg/kg, iv; format: ADME, organism-based; parameters: dose 2 mg/kg, route intravenous
Rattus norvegicus [14] = assay: Prodrug conversion in Rattus norvegicus (rat) assessed as (S)-3-(1-(benzo[d][1,3]dioxol-5-yl)-2-(2-methoxy-4-methylphenylsulfonamido)-2-oxoethyl)-1-methyl-1H-indole-6-carboxylic acid level at 2 mg/kg, po; format: ADME, organism-based; parameters: dose 2 mg/kg, route oral; conditions: in vivo
Rattus norvegicus [15] = assay: Tmax in Rattus norvegicus (rat) assessed as (S)-3-(1-(benzo[d][1,3]dioxol-5-yl)-2-(2-methoxy-4-methylphenylsulfonamido)-2-oxoethyl)-1-methyl-1H-indole-6-carboxylic acid level at 2 mg/kg, po; format: ADME, organism-based; parameters: dose 2 mg/kg, route oral; conditions: in vivo
Rattus norvegicus [16] = assay: Prodrug conversion in Rattus norvegicus (rat) assessed as (S)-3-(1-(benzo[d][1,3]dioxol-5-yl)-2-(2-methoxy-4-methylphenylsulfonamido)-2-oxoethyl)-1-methyl-1H-indole-6-carboxylic acid level at 2 mg/kg, iv; format: ADME, organism-based; parameters: dose 2 mg/kg, route intravenous; conditions: in vivo
Liver cytosol [17] = assay: Prodrug conversion in Homo sapiens (human) liver cytosol assessed as (S)-3-(1-(benzo[d][1,3]dioxol-5-yl)-2-(2-methoxy-4-methylphenylsulfonamido)-2-oxoethyl)-1-methyl-1H-indole-6-carboxylic acid formation; format: ADME, tissue-based
Canis familiaris [18] = assay: Cardiotoxicity in Canis lupus familiaris (dog) assessed as change in heart rate at 1.5 to 15 mg/kg, po; format: toxicity, organism-based; parameters: dose 1.5-15 mg/kg, route oral; conditions: in vivo
Canis familiaris [19] = assay: Cardiotoxicity in Canis lupus familiaris (dog) assessed as change in left ventricular contractility at 1.5 to 15 mg/kg, po; format: toxicity, organism-based, Heart left ventricle; parameters: dose 1.5-15 mg/kg, route oral; conditions: in vivo
Liver cytosol [20] = assay: Prodrug conversion in Sus scrofa (pig) liver cytosol assessed as (S)-3-(1-(benzo[d][1,3]dioxol-5-yl)-2-(2-methoxy-4-methylphenylsulfonamido)-2-oxoethyl)-1-methyl-1H-indole-6-carboxylic acid formation; format: ADME, tissue-based
Rattus norvegicus [21] = assay: Cmax in Rattus norvegicus (rat) assessed as (S)-3-(1-(benzo[d][1,3]dioxol-5-yl)-2-(2-methoxy-4-methylphenylsulfonamido)-2-oxoethyl)-1-methyl-1H-indole-6-carboxylic acid level at 2 mg/kg, po; format: ADME, organism-based; parameters: dose 2 mg/kg, route oral; conditions: in vivo
[22] = Tmax in Rattus norvegicus (rat) at 2 mg/kg, po; format: ADME, organism-based; parameters: dose 2 mg/kg, route oral; conditions: in vivo
Liver cytosol [23] = assay: Prodrug conversion in male Rattus norvegicus (rat) liver cytosol assessed as (S)-3-(1-(benzo[d][1,3]dioxol-5-yl)-2-(2-methoxy-4-methylphenylsulfonamido)-2-oxoethyl)-1-methyl-1H-indole-6-carboxylic acid formation; format: ADME, tissue-based
Rattus norvegicus [24] = assay: Drug absorption in Rattus norvegicus (rat) assessed as (S)-3-(1-(benzo[d][1,3]dioxol-5-yl)-2-(2-methoxy-4-methylphenylsulfonamido)-2-oxoethyl)-1-methyl-1H-indole-6-carboxylic acid level at 2 mg/kg; format: ADME, organism-based; parameters: dose 2 mg/kg; conditions: in vivo
[25] = Volume of distribution in Rattus norvegicus (rat) at 2 mg/kg, iv; format: ADME, organism-based; parameters: dose 2 mg/kg, route intravenous; conditions: in vivo
Canis familiaris [26] = assay: Cardiotoxicity in Canis lupus familiaris (dog) assessed as change in ECG at 1.5 to 15 mg/kg, po; format: toxicity, organism-based; parameters: dose 1.5-15 mg/kg, route oral; conditions: in vivo
[27] = Elimination half life in Rattus norvegicus (rat) at 2 mg/kg, iv; format: ADME, organism-based; parameters: dose 2 mg/kg, route intravenous; conditions: in vivo, read-out: beta t1/2 (converted)
[28] = Half life in Canis lupus familiaris (dog) liver microsome at 1 uM; format: ADME; conditions: liver microsomes

COc1cc(C)ccc1S(=O)(=O)NC(=O)[C@@H](c1ccc2c(c1)OCO2)c1cn(C)c2cc(C(=O)O)ccc12
pIC50 (Endothelin-1 receptor): 8.38 | pIC50 [1]: 3.49 | pIC50 [2]: 6.46 | pKi [2]: 5.84

COc1cc(C)ccc1S(=O)(=O)NC(=O)C(c1ccc2c(c1)OCO2)c1cn(C)c2cc(CO)ccc12 (configuration not stated)
Vd [3]: 1.2 L/kg | pIC50 (Endothelin-1 receptor): 8.06 | CL free (Rattus norvegicus [4]): 7200 mL/min/kg | Fu [5]: 0.01% | Papp [6]: 1.2 ×10⁻⁶ cm/s | pIC50 [2]: 6.61 | Fa [7]: 55%

COc1cc(C)ccc1S(=O)(=O)NC(=O)[C@@H](c1ccc2c(c1)OCO2)c1cn(C)c2cc(CO)ccc12
betat1/2(app) (Rattus norvegicus [8]): 9 h | Cmax [9]: 48 ng/mL | half-life at 1 µM [10]: > 120 min | pIC50 (Endothelin-1 receptor): 8.66 | pKi (Endothelin-1 receptor): 8.66 | Activity (Rattus norvegicus [11]): Non-toxic | half-life at 1 µM [12]: > 120 min | pIC50 [1]: 3.12 | clearance [13]: 1.7 mL/min/kg | Drug metabolism (Rattus norvegicus [14]): Active | Tmax (Rattus norvegicus [15]): 4 h | Drug metabolism (Rattus norvegicus [16]): Active | Drug metabolism (Liver cytosol [17]): Active | Activity (Canis familiaris [18]): Non-toxic | Activity (Canis familiaris [19]): Non-toxic | Drug metabolism (Liver cytosol [20]): Active | Cmax (Rattus norvegicus [21]): 83 ng/mL | Tmax [22]: 15 min | Drug metabolism (Liver cytosol [23]): Active | Drug absorption (Rattus norvegicus [24]): 36% | Vd [25]: 0.16 L/kg | Activity (Canis familiaris [26]): Non-toxic | half-life [27]: 66 min | pIC50 [2]: 6.17 | pKi [2]: 5.82 | half-life at 1 µM [28]: > 120 min

COc1cc(C)ccc1S(=O)(=O)NC(=O)C(c1ccc2c(c1)OCO2)c1cn(C)c2cc(C(N)=O)ccc12 (racemic)
Vd [3]: 0.6 L/kg | CL free (Rattus norvegicus [4]): 1329 mL/min/kg | Fu [5]: 0.007% | Papp [6]: 1.6 ×10⁻⁶ cm/s | pIC50 [2]: 6.56 | Fa [7]: < 5%

CCn1cc(C(C(=O)NS(=O)(=O)c2ccc(C(C)C)cc2)c2ccc3c(c2)OCO3)c2ccccc21 (racemic)
pIC50 (Endothelin-1 receptor): 6.25

Cn1cc(C(C(=O)NS(=O)(=O)c2ccc(CC(=O)O)cc2)c2ccc3c(c2)OCO3)c2ccc(C(N)=O)cc21 (racemic)
Vd [3]: 0.3 L/kg | pIC50 (Endothelin-1 receptor): 8.77 | CL free (Rattus norvegicus [4]): 138 mL/min/kg | Fu [5]: 0.048% | Papp [6]: < 0.5 ×10⁻⁶ cm/s | pIC50 [2]: 6.24 | Fa [7]: < 5%

COc1cc(C)ccc1S(=O)(=O)NC(=O)C(c1ccc2c(c1)OCO2)c1cn(C)c2cc(C(=O)O)ccc12 (racemic)
Vd [3]: 0.6 L/kg | pIC50 (Endothelin-1 receptor): 8.28 | CL free (Rattus norvegicus [4]): 609 mL/min/kg | Fu [5]: 0.01% | Papp [6]: < 0.5 ×10⁻⁶ cm/s | pIC50 [2]: 6.19 | Fa [7]: < 5%

Cc1ccc(S(=O)(=O)NC(=O)C(c2ccc3c(c2)OCO3)c2cn(C)c3cc(CO)ccc23)cc1 (racemic)
pIC50 (Endothelin-1 receptor): 7.47

COc1cc(C)ccc1S(=O)(=O)NC(=O)C(c1ccc2c(c1)OCO2)c1cn(C)c2cc(Cl)ccc12 (racemic)
pIC50 (Endothelin-1 receptor): 7.34 | pIC50 [2]: 6.66

COc1cc(C)ccc1S(=O)(=O)NC(=O)C(c1ccc2c(c1)OCO2)c1cn(C)c2cc(F)ccc12 (racemic)
Vd [3]: 4 L/kg | pIC50 (Endothelin-1 receptor): 7.85 | CL free (Rattus norvegicus [4]): 1740 mL/min/kg | Fu [5]: 0.005% | Papp [6]: 5 ×10⁻⁶ cm/s | pIC50 [2]: 6.66 | Fa [7]: 100%

COc1cc(C)ccc1S(=O)(=O)NC(=O)C(c1ccc2c(c1)OCO2)c1cn(C)c2cc(C(C)=O)ccc12 (racemic)
Vd [3]: 5 L/kg | pIC50 (Endothelin-1 receptor): 8.85 | CL free (Rattus norvegicus [4]): 17000 mL/min/kg | Fu [5]: 0.002% | Papp [6]: 20 ×10⁻⁶ cm/s | pIC50 [2]: 6.04 | Fa [7]: 70%

COc1cc(C)ccc1S(=O)(=O)NC(=O)C(c1ccc2c(c1)OCO2)c1cn(C)c2cc(C#N)ccc12 (racemic)
Vd [3]: 2.8 L/kg | pIC50 (Endothelin-1 receptor): 7.96 | CL free (Rattus norvegicus [4]): 19000 mL/min/kg | Fu [5]: 0.002% | Papp [6]: 20 ×10⁻⁶ cm/s | pIC50 [2]: 6.38

COCc1ccc2c(C(C(=O)NS(=O)(=O)c3ccc(C)cc3OC)c3ccc4c(c3)OCO4)cn(C)c2c1 (racemic)
pIC50 (Endothelin-1 receptor): 8.06 | pIC50 [2]: 5.94

CCOC(=O)c1ccc2c(C(C(=O)NS(=O)(=O)c3ccc(C)cc3OC)c3ccc4c(c3)OCO4)cn(C)c2c1 (racemic)
pIC50 (Endothelin-1 receptor): 7.74 | pIC50 [2]: 6.62

CCn1cc(C(C(=O)NS(=O)(=O)c2ccc(C(C)C)cc2)c2ccc3c(c2)OCO3)c2ccc(C(=O)O)cc21 (racemic)
pIC50 [2]: 7.16

CC(C)c1ccc(S(=O)(=O)NC(=O)C(c2ccc3c(c2)OCO3)c2cn(C)c3cc(C(N)=O)ccc23)cc1 (racemic)
pIC50 [2]: 7.82
